Data as given in patent US11214803B2, “Modulators of YAP1 expression” (Ionis Pharmaceuticals, Inc., priority 2019, dated 2022).
Marks after values point to notes of the source that are not given here. Strand notation (5' to 3'): a small letter for the sugar, then the base; units joined by * are phosphorothioate-linked, units joined directly phosphodiester-linked; [ ] holds rarer units or linkages, { } end groups; capitals alone tell only the bases. k = constrained ethyl (cEt); [5mC] = 5-methylcytosine; d = 2'-deoxy (DNA)

Test system: Yap1 mRNA
Test: Antisense inhibition of human Yap1 in A-431 cells by cEt gapmers, single dose (Example 3, RTS36584)
Format: cell-based
Method in brief: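 A-431 cells (5,000/well) took up the 3-10-3 cEt gapmers by free uptake at 2,000 nM for about 48 h. Yap1 mRNA was measured by RT-qPCR with primer probe set RTS36584, normalized to RiboGreen total RNA, and given as % of untreated control.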

[1] = Table 8, A-431 cells, 5,000 cells per well, free uptake, 2,000 nM, approximately 48 hours, RTS36584, normalized to RIBOGREEN, Yap1 mRNA relative to untreated control cells
[2] = Table 26, Yap1 mRNA by 3-10-3 cEt gapmers targeting SEQ ID NO.: 1, and 2, percent of untreated control
[3] = Table 9, A-431 cells, 5,000 cells per well, free uptake, 2,000 nM, approximately 48 hours, RTS36584, normalized to RIBOGREEN, Yap1 mRNA relative to untreated control cells
[4] = Table 28, Yap1 mRNA as percent of untreated control, 3-10-3 cEt gapmers targeting SEQ ID NO.: 1, and 2
[5] = Table 10, A-431 cells, 5,000 cells per well, free uptake, 2,000 nM oligonucleotide, approx. 48 hours, primer probe set RTS36584, Yap1 mRNA normalized to RIBOGREEN, percent of untreated control
[6] = Table 34, Yap1 mRNA as percent of untreated control, 3-10-3 cEt gapmers targeting SEQ ID NO: 1 and 2, single dose
[7] = Table 29, Yap1 mRNA as percent of untreated control, 3-10-3 cEt gapmers targeting SEQ ID NO.: 1, and 2
[8] = Table 13, A-431 cells, 5,000 cells per well, free uptake, 2,000 nM modified oligonucleotide, approx. 48 hours, RTS36584, normalized to RIBOGREEN, Yap1 mRNA relative to untreated control cells
[9] = Table 27, Yap1 mRNA by 3-10-3 cEt gapmers targeting SEQ ID NO.: 1, and 2, percent of untreated control
[10] = Table 12, A-431 cells, 5,000 cells per well, free uptake, 2,000 nM modified oligonucleotide, approx. 48 hours, RTS36584, normalized to RIBOGREEN, Yap1 mRNA relative to untreated control cells
[11] = Table 11, A-431 cells, 5,000 cells per well, free uptake, 2,000 nM oligonucleotide, approx. 48 hours, primer probe set RTS36584, Yap1 mRNA normalized to RIBOGREEN, percent of untreated control
[12] = Table 35, Yap1 mRNA as percent of untreated control, 3-10-3 cEt gapmers targeting SEQ ID NO: 1 and 2, single dose

958414 (antisense k[5mC]*kA*kG*dA*dA*dT*dT*d[5mC]*d[5mC]*d[5mC]*dA*dA*dG*k[5mC]*kT*kA) [Compound 958414]
YAP1 (% UTC) [1]: 73 % UTC

1075244 (kA*k[5mC]*k[5mC]*d[5mC]*dA*dA*dA*dA*dA*dT*dT*d[5mC]*dT*kG*kT*kG; antisense) [compound 1075244]
YAP1 (% UTC) [2]: 76 % UTC

958556 (k[5mC]*kA*kA*d[5mC]*d[5mC]*dA*dA*d[5mC]*dT*dA*dT*dT*dA*k[5mC]*kT*kT; antisense) [Compound 958556]
YAP1 (% UTC) [3]: 10 % UTC

1074478 (k[5mC]*k[5mC]*kT*dA*dG*dG*dT*dT*d[5mC]*d[5mC]*dG*dA*d[5mC]*kA*kA*kA; antisense) [compound 1074478]
YAP1 (% UTC) [4]: 69 % UTC

958792 (antisense kG*k[5mC]*k[5mC]*dA*dA*dT*dG*dG*dA*dG*dT*d[5mC]*dA*k[5mC]*k[5mC]*kA) [Compound 958792]
YAP1 (% UTC) [5]: 46 % UTC

1075828 (kT*kT*kA*dG*dA*dA*dT*dA*dG*dT*dT*d[5mC]*dT*kA*k[5mC]*k[5mC]; antisense) [compound 1075828]
YAP1 (% UTC) [6]: 59 % UTC

958501 (kT*kG*k[5mC]*d[5mC]*dT*dA*dG*dG*dT*dT*d[5mC]*d[5mC]*dG*kA*k[5mC]*kA; antisense) [Compound 958501]
YAP1 (% UTC) [3]: 41 % UTC

1074287 (antisense kA*k[5mC]*kT*dG*dA*dT*dT*d[5mC]*dT*d[5mC]*dT*dG*dG*kT*kT*k[5mC]) [compound 1074287]
YAP1 (% UTC) [7]: 11 % UTC

958366 (antisense kT*kG*kT*dA*dG*d[5mC]*dT*dG*d[5mC]*dT*d[5mC]*dA*dT*kG*k[5mC]*kT) [Compound 958366]
YAP1 (% UTC) [1]: 16* % UTC

958700 (antisense k[5mC]*kT*kA*dA*dT*dA*dT*dA*dG*dA*d[5mC]*dT*dA*k[5mC]*kT*k[5mC]) [Compound 958700]
YAP1 (% UTC) [8]: 55 % UTC

958400 (antisense kT*kT*kG*dA*d[5mC]*d[5mC]*dA*dA*d[5mC]*dT*dA*d[5mC]*dT*kT*kG*kA) [Compound 958400]
YAP1 (% UTC) [1]: 26 % UTC

1074702 (antisense kG*kG*kT*dG*dT*dA*dA*dG*dA*d[5mC]*dA*dA*dG*kT*k[5mC]*kT) [compound 1074702]
YAP1 (% UTC) [4]: 16 % UTC

958596 (kA*kG*k[5mC]*dA*dG*dT*dT*dA*dA*dG*d[5mC]*dA*d[5mC]*kT*kT*kT; antisense) [Compound 958596]
YAP1 (% UTC) [3]: 3 % UTC

1074574 (DNA k[5mC]*kA*kT*dT*dA*dT*dG*dA*dA*d[5mC]*d[5mC]*dT*dA*k[5mC]*kT*k[5mC]) [compound 1074574]
YAP1 (% UTC) [4]: 17 % UTC

1076365 (antisense kT*kA*kA*dG*dA*dA*dG*dG*dG*d[5mC]*d[5mC]*dA*dA*kT*kG*kG) [compound 1076365]
YAP1 (% UTC) [9]: 15 % UTC

958631 (antisense kT*kG*k[5mC]*dA*dA*dA*dT*dA*dG*dG*dA*dG*dA*kG*kG*kG) [Compound 958631]
YAP1 (% UTC) [3]: 122 % UTC

958536 (kA*kG*kG*dG*dT*d[5mC]*dA*dA*dT*dT*dT*dT*d[5mC]*kA*kG*k[5mC]; antisense) [Compound 958536]
YAP1 (% UTC) [3]: 3 % UTC

958732 (antisense kA*kG*k[5mC]*dA*d[5mC]*dG*dG*dT*dG*dT*dA*dG*d[5mC]*kT*kT*kT) [Compound 958732]
YAP1 (% UTC) [5]: 60 % UTC

1074189 (antisense kG*kG*k[5mC]*dT*dG*d[5mC]*dG*dA*dA*dG*dG*d[5mC]*dG*kG*k[5mC]*kT) [compound 1074189]
YAP1 (% UTC) [9]: 96 % UTC

1075788 (kT*k[5mC]*kT*dT*dA*dA*dG*dG*dA*dT*dT*dG*dG*k[5mC]*kT*kA; antisense) [compound 1075788]
YAP1 (% UTC) [2]: 15 % UTC

1075150 (kA*kG*k[5mC]*dG*dG*dA*dA*dA*dA*dA*dA*d[5mC]*dA*k[5mC]*k[5mC]*kT; antisense) [compound 1075150]
YAP1 (% UTC) [4]: 35 % UTC

958496 (k[5mC]*k[5mC]*kT*dT*dA*dT*dA*dA*dG*d[5mC]*dT*d[5mC]*d[5mC]*kT*kA*kA; antisense) [Compound 958496]
YAP1 (% UTC) [3]: 3 % UTC

958390 (antisense kG*k[5mC]*kG*dA*dA*dG*dG*dT*dG*d[5mC]*dG*dG*dA*kG*k[5mC]*kG) [Compound 958390]
YAP1 (% UTC) [1]: 145 % UTC

1074516 (kT*kT*kA*dA*d[5mC]*dT*dG*dG*dA*dA*dA*dG*d[5mC]*kA*kG*kG; antisense) [compound 1074516]
YAP1 (% UTC) [6]: 22 % UTC

958408 (antisense k[5mC]*kT*kA*dT*dA*dT*dA*dT*dG*dG*dT*dA*dG*kT*k[5mC]*kT) [Compound 958408]
YAP1 (% UTC) [1]: 20 % UTC

958494 (kT*kA*kG*d[5mC]*dA*d[5mC]*dT*dA*dG*dG*dA*dG*dG*kA*kA*kA; antisense) [Compound 958494]
YAP1 (% UTC) [10]: 28 % UTC

1074796 (k[5mC]*kT*k[5mC]*d[5mC]*dA*dA*dA*dT*d[5mC]*dA*dA*dT*dG*kT*kG*k[5mC]; antisense) [compound 1074796]
YAP1 (% UTC) [2]: 22 % UTC

1075276 (kG*kA*k[5mC]*d[5mC]*dA*dA*dT*dA*d[5mC]*dA*dA*dT*dG*kG*kG*kA; antisense) [compound 1075276]
YAP1 (% UTC) [2]: 78 % UTC

1074349 (antisense k[5mC]*kT*kG*dT*dA*d[5mC]*dT*d[5mC]*dT*d[5mC]*dA*dT*d[5mC]*kT*k[5mC]*kG) [compound 1074349]
YAP1 (% UTC) [9]: 30 % UTC

1076532 (kA*kT*kT*dT*dT*dT*dA*dG*dG*d[5mC]*dA*dG*dA*k[5mC]*kG*k[5mC]; antisense) [compound 1076532]
YAP1 (% UTC) [6]: 12 % UTC

1076207 (kA*kG*kT*d[5mC]*dA*dA*dT*dA*dA*dA*d[5mC]*dT*dT*kA*k[5mC]*k[5mC]; antisense) [compound 1076207]
YAP1 (% UTC) [7]: 58 % UTC

958382 (antisense kT*kT*k[5mC]*d[5mC]*dT*d[5mC]*dT*dG*d[5mC]*dG*d[5mC]*dG*d[5mC]*k[5mC]*k[5mC]*kG) [Compound 958382]
YAP1 (% UTC) [1]: 111 % UTC

958713 (antisense kT*kG*k[5mC]*dT*dA*dG*dA*dG*dG*d[5mC]*dT*dG*dT*kT*k[5mC]*k[5mC]) [Compound 958713]
YAP1 (% UTC) [11]: 55 % UTC

958767 (antisense kA*k[5mC]*kG*dA*dA*dT*dA*dA*dG*dG*d[5mC]*dA*dT*kT*kA*kG) [Compound 958767]
YAP1 (% UTC) [5]: 6 % UTC

958580 (kA*kT*kA*dA*dT*d[5mC]*dT*dT*dA*dA*dT*d[5mC]*dT*kG*kT*kG; antisense) [Compound 958580]
YAP1 (% UTC) [8]: 4 % UTC

1075181 (kT*kT*kA*dT*dA*dT*dT*dA*d[5mC]*dT*dA*d[5mC]*dA*kA*k[5mC]*k[5mC]; antisense) [compound 1075181]
YAP1 (% UTC) [9]: 15 % UTC

1075596 (antisense kA*kT*kA*dT*dA*dA*dT*dA*d[5mC]*dA*dT*d[5mC]*dT*k[5mC]*k[5mC]*k[5mC]) [compound 1075596]
YAP1 (% UTC) [2]: 91 % UTC

1076492 (kA*kA*kA*dA*dG*dA*dT*dA*d[5mC]*d[5mC]*d[5mC]*d[5mC]*d[5mC]*kA*kG*kT; antisense) [compound 1076492]
YAP1 (% UTC) [2]: 47 % UTC

958563 (kA*kG*k[5mC]*dT*dT*dT*dT*dG*d[5mC]*d[5mC]*dA*dG*dG*kA*kG*kA; antisense) [Compound 958563]
YAP1 (% UTC) [11]: 3 % UTC

1074325 (antisense k[5mC]*kG*k[5mC]*dA*dG*dG*dG*d[5mC]*dT*dA*dA*d[5mC]*dT*k[5mC]*k[5mC]*kT) [compound 1074325]
YAP1 (% UTC) [12]: 42 % UTC

1076181 (kT*kA*kT*dA*dA*dT*dT*dA*dG*d[5mC]*d[5mC]*dA*dA*k[5mC]*k[5mC]*kA; antisense) [compound 1076181]
YAP1 (% UTC) [12]: 26 % UTC

958722 (antisense k[5mC]*kA*kT*dA*dA*dT*dA*dG*dG*dA*d[5mC]*dA*d[5mC]*kA*kA*k[5mC]) [Compound 958722]
YAP1 (% UTC) [5]: 59 % UTC

958761 (antisense kA*kG*kT*d[5mC]*dT*d[5mC]*dA*dA*d[5mC]*dA*dA*d[5mC]*d[5mC]*kT*kT*k[5mC]) [Compound 958761]
YAP1 (% UTC) [3]: 7 % UTC

1074895 (antisense kT*k[5mC]*k[5mC]*dT*dA*dT*dG*d[5mC]*dT*dG*dA*dA*dG*kT*kT*kT) [compound 1074895]
YAP1 (% UTC) [7]: 60 % UTC

958669 (kG*k[5mC]*kT*dA*dT*d[5mC]*dT*dT*dT*dG*dG*dA*dT*k[5mC]*k[5mC]*kA; antisense) [Compound 958669]
YAP1 (% UTC) [10]: 76 % UTC

958374 (antisense k[5mC]*kA*kG*dA*dG*dG*dT*dG*d[5mC]*dT*dA*dG*d[5mC]*kT*kG*kG) [Compound 958374]
YAP1 (% UTC) [1]: 38 % UTC
